Test results reported in US7744867B2, “PTPase inhibitors and method of using same” (The Cleveland Clinic Foundation, priority 2001, dated 2010).

Legend:
[1] = system: Jak2 and Stat5 tyrosine phosphorylation; experiment: IL-3-induced Jak2/Stat5 tyrosine phosphorylation in Baf3 cells; assay type: cell-based, murine
Protocol: For induction of cellular protein phosphorylation by sodium stibogluconate or pervanadate, Baf3 cells were incubated in 0.1% FCS RPMI 1640 medium at 37° C. for 16 hours. The cells were then washed twice in RPMI 1640 medium and incubated with sodium stibogluconate or pervanandate (0.1 mM) for various times prior to termination by lysing cells in cold lysis buffer (50 mM Tris, pH 7.4; 150 mM NaCl; 0.2 mM Na3VO4; 20 mm NaF; 1% NP40; 2 mM PMSF; 20 μg/ml of aprotinin and 1 mM of sodium molybdic acid). To determine the effect of sodium stibogluconate or potassium antimonyl tartrate on IL-3-induced Jak/Stat phosphorylation, Baf3 cells were deprived of the growth factor for 16 hours in 0.1% FCS RPMI 1640 medium and then incubated with or without sodium stibogluconate or potassium antimonyl tartrate for 10 minutes. IL-3 was next added to the cell suspension and incubated for various times. The cells were then harvested and lysed in cold lysis buffer at 4° C. for 45 minutes. Total cell lysates (TCL) were separated in SDS-PAGE gels, blotted onto nitrocellulose membrane (Schleicher & Schuell), probed with specific antibodies and detected using an enhanced chemiluminescence kit (ECL, Amersham).
A functional role of SHP-1 in dephosphorylating the Jak family kinases during cytokine signaling has been documented. To determine whether sodium stibogluconate inhibits SHP-1 in vivo, the effect of the drug on IL-3-induced Jak2 tyrosine phosphorylation in Baf3 cells was examined. Baf3 cells deprived of IL-3 were incubated with or without the drug for 10 minutes and then stimulated with IL-3 for various times. IL-3 induced tyrosine phosphorylation of Jak2 and Stat5 in Baf3 cells in the presence or absence of the drug. However, the phosphotyrosine levels of Jak2 and Stat5 in the presence of the drug were about twice of those in cells without drug treatment as determined by densitometry analysis.

Baf3 cells = experiment: IL-3-induced proliferation of Baf3 cells; assay type: cell-based, murine
Protocol: The murine hematopoietic cell line Baf3 was maintained in RPMI 1640 medium supplemented with 10% fetal calf serum (FCS) and murine IL-3 (20 units/ml) as described previously. Human myeloid cell line TF-1 was maintained in RPMI 1640 supplemented with 10% FCS and 40 ng/ml of recombinant human GM-CSF as described previously. For cell proliferation assays, cells were washed in 10% FCS medium twice, resuspended in 10% FCS medium, incubated at 37° C. for 16 hours and then cultured at 37° C. in 10% FCS medium containing various amounts of cytokines, sodium stibogluconate, or PSbT for 3-6 days as indicated. The cell numbers in proliferation assays were determined by an MTT assay or by microscopic cell counting as indicated.

GST/SHP-1 fusion protein = target: T1, GST/SHP-1 fusion protein (Mus musculus, UniProt P29351); experiment: In vitro PTPase assay, dephosphorylation of a synthetic phosphotyrosine peptide; assay type: biochemical; conditions: at 11,000 μg/ml
T1 construct: made in house
Protocol: In vitro PTPase activities were measured using the commercial protein tyrosine phosphatase assay kit (UBI) following established procedure. This assay measures the in vitro dephosphorylation of a synthetic phosphotyrosine peptide (R-R-L-I-E-D-A-E-pY-A-A-R-G). Briefly, 0.01 μg of GST/PTPase fusion protein was incubated in 50 μl of Tris buffer (10 mM Tris, […]) at 22° C. for 10 minutes, followed by addition of 0.2 mM of the phosphotyrosine peptide and incubation at 22° C. for 18 hours. 100 μl of Malachite Green solution was added and incubated for 5 minutes, and the absorbance at 660 nm was measured after 5 minutes.

[2] = target: T2, PTP1B (GST fusion protein) (Homo sapiens, UniProt P18031); experiment: as above; assay type: biochemical; conditions: at 11,000 μg/ml
T2 construct: purchased Upstate Biotechnology Inc. (UBI, Lake Placid, N.Y.)
Protocol: (§1) In vitro PTPase activities were measured using the commercial protein tyrosine phosphatase assay kit (UBI) following established procedure. […] 100 μl of Malachite Green solution was added and incubated for 5 minutes, and the absorbance at 660 nm was measured after 5 minutes.

recombinant PRL-3 = target: T3, recombinant PRL-3 (Homo sapiens, UniProt O75365); experiment: In vitro PTPase assay with recombinant PRL (peptide or DiFMUP substrate); assay type: biochemical; conditions: DiFMUP substrate; comparable conditions
T3 construct: made in house; host or cells: E. coli DH5α
Protocol: as §1
Recombinant GST fusion proteins of human PRL-1, 2 and 3 phosphatases were purified with glutathione beads from DH5α bacteria transformed by pGEX vectors containing cDNA fragments encoding the human PRLs which were generated by RT-PCR from H9 cells and confirmed by sequence analysis. Activities of the purified recombinant PRL proteins in dephosphorylating DiFMUP in the absence or presence of various inhibitors were measured following established procedure.
To assess whether sodium stibogluconate is an inhibitor of oncogenic PRL phosphatases, its effects on the PTPase activity of recombinant PRLs were evaluated by in vitro PTPase assays.

PTPases = experiment: PTPase inhibition in vitro by ketoconazole; assay type: biochemical

T2 sequence (P18031 whole entry, species assumed, the tested form may be a part): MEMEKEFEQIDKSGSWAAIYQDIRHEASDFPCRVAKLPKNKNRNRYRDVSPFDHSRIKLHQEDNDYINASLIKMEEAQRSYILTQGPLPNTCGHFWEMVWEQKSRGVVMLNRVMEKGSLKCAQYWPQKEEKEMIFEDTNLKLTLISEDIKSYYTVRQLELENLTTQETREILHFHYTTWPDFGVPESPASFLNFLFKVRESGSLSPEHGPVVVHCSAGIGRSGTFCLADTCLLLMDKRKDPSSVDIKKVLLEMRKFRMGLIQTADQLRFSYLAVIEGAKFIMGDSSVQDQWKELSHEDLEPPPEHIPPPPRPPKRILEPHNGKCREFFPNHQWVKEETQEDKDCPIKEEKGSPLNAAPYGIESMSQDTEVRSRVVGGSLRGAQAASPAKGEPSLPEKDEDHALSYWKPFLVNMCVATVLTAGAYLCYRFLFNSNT
T3 sequence (O75365 whole entry): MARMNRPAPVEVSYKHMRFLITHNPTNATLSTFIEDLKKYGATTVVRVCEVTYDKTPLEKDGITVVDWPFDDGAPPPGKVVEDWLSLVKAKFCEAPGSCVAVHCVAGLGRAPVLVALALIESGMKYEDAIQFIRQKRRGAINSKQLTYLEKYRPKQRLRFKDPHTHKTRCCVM
T1 sequence (P29351 whole entry, the tested form may be a part): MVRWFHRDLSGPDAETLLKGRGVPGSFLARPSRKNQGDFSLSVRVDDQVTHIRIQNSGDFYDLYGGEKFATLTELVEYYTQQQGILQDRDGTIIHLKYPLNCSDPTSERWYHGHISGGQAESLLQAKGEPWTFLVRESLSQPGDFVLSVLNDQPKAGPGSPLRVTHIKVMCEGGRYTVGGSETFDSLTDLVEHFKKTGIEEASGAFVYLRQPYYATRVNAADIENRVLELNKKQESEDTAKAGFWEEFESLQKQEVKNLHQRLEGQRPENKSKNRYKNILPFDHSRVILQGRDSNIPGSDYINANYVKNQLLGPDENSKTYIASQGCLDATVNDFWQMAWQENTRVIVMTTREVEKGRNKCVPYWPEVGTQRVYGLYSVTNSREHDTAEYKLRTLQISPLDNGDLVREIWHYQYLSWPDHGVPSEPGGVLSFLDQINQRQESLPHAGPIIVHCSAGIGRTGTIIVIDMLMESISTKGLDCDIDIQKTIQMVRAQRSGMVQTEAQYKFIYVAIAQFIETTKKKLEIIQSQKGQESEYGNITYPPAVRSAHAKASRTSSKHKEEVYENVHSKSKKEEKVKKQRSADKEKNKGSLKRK

O.O.O.O=C([O-])[C@H]([O-])[C@@H]([O-])C(=O)[O-].O=C([O-])[C@H]([O-])[C@@H]([O-])C(=O)[O-].[K+].[K+].[Sb+3].[Sb+3] [PSbT, potassium antimonyl tartrate]
IL-3-induced Stat5 phosphorylation [1]: failed to enhance
IL-3-induced proliferation of Baf3 cells (Baf3 cells): failed to enhance
toxicity against Baf3 cells (Baf3 cells): marked toxicity
inhibition of SHP-1 (GST/SHP-1 fusion protein): no detectable inhibition
inhibition of PTP1B [2]: no detectable inhibition

[Na+].[Na+].[Na+].[O]=[V]([O-])([O-])[O-] [sodium orthovanadate]
inhibition of PRL-3 compared with sodium stibogluconate (recombinant PRL-3): less effective

CC(=O)N1CCN(c2ccc(OCC3COC(Cn4ccnc4)(c4ccc(Cl)cc4Cl)O3)cc2)CC1 (stereo not shown) [ketoconazole]
PTPase inhibition in vitro (PTPases): inhibits different PTPases
